Read-outs that look alike come from different tables or passages of the source.
Experiments:
OVCAR-3 (Ovarian cancer) = experiment: cells; details: Homo sapiens
Colon Cancer subpanel = experiment: NCI-60 screen, subpanel; details: Homo sapiens
CNS cancer subpanel = experiment: NCI-60 screen, subpanel; details: Homo sapiens
Ovarian Cancer subpanel = experiment: NCI-60 screen, subpanel; details: Homo sapiens
Renal Cancer subpanel = experiment: NCI-60 screen, subpanel; details: Homo sapiens
CCRF-CEM (Leukemia) = experiment: NCI-60 screen (SRB, 48 h); details: Homo sapiens
MOLT-4 (Leukemia) = experiment: NCI-60 screen (SRB, 48 h); details: Homo sapiens
EKVX (NSC lung cancer) = experiment: NCI-60 screen (SRB, 48 h); details: Homo sapiens
HOP-62 (NSC lung cancer) = experiment: NCI-60 screen (SRB, 48 h); details: Homo sapiens
HOP-92 (NSC lung cancer) = experiment: NCI-60 screen (SRB, 48 h); details: Homo sapiens
[1] = test system: NCI-H226 (NSC lung cancer); experiment: NCI-60 screen (SRB, 48 h); details: Homo sapiens
[2] = test system: NCI-H322M (NSC lung cancer); experiment: NCI-60 screen (SRB, 48 h); details: Homo sapiens
COLO 205 (Colon cancer) = experiment: NCI-60 screen (SRB, 48 h); details: Homo sapiens
HT29 (Colon cancer) = experiment: NCI-60 screen (SRB, 48 h); details: Homo sapiens
SW-620 (Colon cancer) = experiment: NCI-60 screen (SRB, 48 h); details: Homo sapiens
SF-295 (CNS cancer) = experiment: NCI-60 screen (SRB, 48 h); details: Homo sapiens
SNB-75 (CNS cancer) = experiment: NCI-60 screen (SRB, 48 h); details: Homo sapiens
M14 (Melanoma) = experiment: NCI-60 screen (SRB, 48 h); details: Homo sapiens
SK-MEL-28 (Melanoma) = experiment: NCI-60 screen (SRB, 48 h); details: Homo sapiens
OVCAR-5 (Ovarian cancer) = experiment: NCI-60 screen (SRB, 48 h); details: Homo sapiens
SK-OV-3 (Ovarian cancer) = experiment: NCI-60 screen (SRB, 48 h); details: Homo sapiens
A498 (Renal cancer) = experiment: NCI-60 screen (SRB, 48 h); details: Homo sapiens
CAKI-1 (Renal cancer) = experiment: NCI-60 screen (SRB, 48 h); details: Homo sapiens
UO-31 (Renal cancer) = experiment: NCI-60 screen (SRB, 48 h); details: Homo sapiens
DU-145 (Prostate cancer) = experiment: NCI-60 screen (SRB, 48 h); details: Homo sapiens
T-47D (Breast cancer) = experiment: NCI-60 screen (SRB, 48 h); details: Homo sapiens, T47D
[3] = test system: panel of approximately 60 cancer cell lines; experiment: NCI-60 screen (SRB, 48 h), full panel

## C=C(C)[C@@H]1CC[C@]2(C)[C@H](C=CC3=C4C[C@@](C)(CO)CC[C@]4(C)CC[C@]32C)[C@@]1(C)CCCN [Compound 20]
OVCAR-3 (Ovarian cancer); OVCAR-3
  GI50: 1.48 µM
OVCAR-3 (Ovarian cancer); OVCAR-3, 48 h, read-out: TGI
  IC (TGI): 2.85 µM
OVCAR-3 (Ovarian cancer); OVCAR-3, read-out: LC50
  CC50: 5.46 µM
Colon Cancer subpanel; 48 h, read-out: TGI MG_MID
  IC (TGI): 2.98 µM
Colon Cancer subpanel; read-out: GI50 MG_MID
  GI50: 1.47 µM
Colon Cancer subpanel; read-out: LC50 MG_MID
  CC50: 5.96 µM
CNS cancer subpanel; 48 h, read-out: TGI MG_MID
  IC (TGI): 3.18 µM
CNS cancer subpanel; read-out: GI50 MG_MID
  GI50: 1.67 µM
CNS cancer subpanel; read-out: LC50 MG_MID
  CC50: 6.04 µM
Ovarian Cancer subpanel; 48 h, read-out: TGI MG_MID
  IC (TGI): 3.3 µM
Ovarian Cancer subpanel; read-out: GI50 MG_MID
  GI50: 1.69 µM
Ovarian Cancer subpanel; read-out: LC50 MG_MID
  CC50: 6.49 µM
Renal Cancer subpanel; 48 h, read-out: TGI MG_MID
  IC (TGI): 3.07 µM
Renal Cancer subpanel; read-out: GI50 MG_MID
  GI50: 1.61 µM
Renal Cancer subpanel; read-out: LC50 MG_MID
  CC50: 5.86 µM
CCRF-CEM (Leukemia)
  GI50: 2.12 µM
CCRF-CEM (Leukemia); 48 h, read-out: TGI
  IC (TGI): 5.56 µM
CCRF-CEM (Leukemia); read-out: LC50
  CC50: > 100 µM
MOLT-4 (Leukemia); MOLT-4
  GI50: 1.78 µM
MOLT-4 (Leukemia); MOLT-4, 48 h, read-out: TGI
  IC (TGI): 3.86 µM
EKVX (NSC lung cancer)
  GI50: 1.6 µM
EKVX (NSC lung cancer); 48 h, read-out: TGI
  IC (TGI): 3.1 µM
EKVX (NSC lung cancer); read-out: LC50
  CC50: 6.01 µM
HOP-62 (NSC lung cancer); HOP-62
  GI50: 1.98 µM
HOP-62 (NSC lung cancer); HOP-62, 48 h, read-out: TGI
  IC (TGI): 4.04 µM
HOP-92 (NSC lung cancer); HOP-92
  GI50: 1.48 µM
HOP-92 (NSC lung cancer); HOP-92, 48 h, read-out: TGI
  IC (TGI): 3.21 µM
HOP-92 (NSC lung cancer); HOP-92, read-out: LC50
  CC50: 6.96 µM
[1]; NCI-H226
  GI50: 1.85 µM
[1]; NCI-H226, 48 h, read-out: TGI
  IC (TGI): 3.66 µM
[2]
  GI50: 1.57 µM
[2]; 48 h, read-out: TGI
  IC (TGI): 2.91 µM
[2]; read-out: LC50
  CC50: 5.43 µM
COLO 205 (Colon cancer); COLO 205
  GI50: 1.49 µM
COLO 205 (Colon cancer); COLO 205, 48 h, read-out: TGI
  IC (TGI): 3.23 µM
COLO 205 (Colon cancer); COLO 205, read-out: LC50
  CC50: 6.96 µM
HT29 (Colon cancer); HT-29
  GI50: 1.63 µM
HT29 (Colon cancer); HT-29, 48 h, read-out: TGI
  IC (TGI): 3.28 µM
HT29 (Colon cancer); HT-29, read-out: LC50
  CC50: 6.59 µM
SW-620 (Colon cancer); SW-620
  GI50: 1.56 µM
SW-620 (Colon cancer); SW-620, 48 h, read-out: TGI
  IC (TGI): 3.04 µM
SW-620 (Colon cancer); SW-620, read-out: LC50
  CC50: 5.93 µM
SF-295 (CNS cancer); SF-295
  GI50: 1.78 µM
SF-295 (CNS cancer); SF-295, 48 h, read-out: TGI
  IC (TGI): 3.21 µM
SF-295 (CNS cancer); SF-295, read-out: LC50
  CC50: 5.79 µM
SNB-75 (CNS cancer); SNB-75
  GI50: 1.53 µM
SNB-75 (CNS cancer); SNB-75, 48 h, read-out: TGI
  IC (TGI): 2.97 µM
SNB-75 (CNS cancer); SNB-75, read-out: LC50
  CC50: 5.77 µM
M14 (Melanoma); M14
  GI50: 1.69 µM
M14 (Melanoma); M14, 48 h, read-out: TGI
  IC (TGI): 3.34 µM
M14 (Melanoma); M14, read-out: LC50
  CC50: 6.62 µM
SK-MEL-28 (Melanoma); SK-MEL-28
  GI50: 1.82 µM
SK-MEL-28 (Melanoma); SK-MEL-28, 48 h, read-out: TGI
  IC (TGI): 3.25 µM
SK-MEL-28 (Melanoma); SK-MEL-28, read-out: LC50
  CC50: 5.8 µM
OVCAR-5 (Ovarian cancer); OVCAR-5
  GI50: 1.71 µM
OVCAR-5 (Ovarian cancer); OVCAR-5, 48 h, read-out: TGI
  IC (TGI): 3.06 µM
OVCAR-5 (Ovarian cancer); OVCAR-5, read-out: LC50
  CC50: 5.57 µM
SK-OV-3 (Ovarian cancer); SK-OV-3
  GI50: 1.72 µM
SK-OV-3 (Ovarian cancer); SK-OV-3, 48 h, read-out: TGI
  IC (TGI): 3.17 µM
SK-OV-3 (Ovarian cancer); SK-OV-3, read-out: LC50
  CC50: 5.85 µM
A498 (Renal cancer); A498
  GI50: 1.54 µM
A498 (Renal cancer); A498, 48 h, read-out: TGI
  IC (TGI): 2.9 µM
A498 (Renal cancer); A498, read-out: LC50
  CC50: 5.44 µM
CAKI-1 (Renal cancer); CAKI-1
  GI50: 1.52 µM
CAKI-1 (Renal cancer); CAKI-1, 48 h, read-out: TGI
  IC (TGI): 2.85 µM
CAKI-1 (Renal cancer); CAKI-1, read-out: LC50
  CC50: 5.34 µM
UO-31 (Renal cancer); UO-31
  GI50: 1.34 µM
UO-31 (Renal cancer); UO-31, 48 h, read-out: TGI
  IC (TGI): 2.65 µM
UO-31 (Renal cancer); UO-31, read-out: LC50
  CC50: 5.24 µM
DU-145 (Prostate cancer); DU-145
  GI50: 1.72 µM
DU-145 (Prostate cancer); DU-145, 48 h, read-out: TGI
  IC (TGI): 3.15 µM
DU-145 (Prostate cancer); DU-145, read-out: LC50
  CC50: 5.78 µM
T-47D (Breast cancer)
  GI50: 1.67 µM
T-47D (Breast cancer); 48 h, read-out: TGI
  IC (TGI): 3.45 µM
[3]; 1 dose 10 µM
  Positive Cytostatic Effect (cell lines with percent growth 0 to 50 / total): 8/60
  Positive Cytotoxic Effect (cell lines with percent growth < 0 / total): 46/60
  number of cancer cell lines the compound was active against: 52 cell lines
[3]; Homo sapiens, 48 h, read-out: Mean Growth, %
  activity at 10 µM: -36.5%
[3]; Homo sapiens, 48 h, read-out: Range of Growth, %
  activity at 10 µM: -100 to 90.8%
[3]; Homo sapiens, 48 h, read-out: TGI MG_MID60, average over all cell lines
  IC (TGI): 3.36 µM
[3]; Homo sapiens, read-out: GI50 MG_MID60
  GI50: 1.66 µM
[3]; Homo sapiens, read-out: GI50 against all human tumor cell lines
  GI50: < 3 µM
[3]; Homo sapiens, read-out: GI50 against the most sensitive cell lines
  GI50: 0.2 to 0.94 µM
[3]; Homo sapiens, read-out: LC50 MG_MID60, average over all cell lines
  CC50: 17.3 µM
